From patent US11168079B2, “Alkene compounds as farnesoid x receptor modulators” (BRISTOL-MYERS SQUIBB COMPANY, priority 2017, dated 2021)
pEC50: −log10 of the molar value.

These compounds were tested against T1, human FXR (Homo sapiens, UniProt Q96RI1) (assay: transient human FXR/Gal4-luciferase reporter assay (HLE GAL-FXR)). Conditions: FXR EC50 (nM), Gal4-hFXR fusion reporter, HEK293 cells; Table 1.
T1 sequence (Q96RI1 262-486 limits assumed): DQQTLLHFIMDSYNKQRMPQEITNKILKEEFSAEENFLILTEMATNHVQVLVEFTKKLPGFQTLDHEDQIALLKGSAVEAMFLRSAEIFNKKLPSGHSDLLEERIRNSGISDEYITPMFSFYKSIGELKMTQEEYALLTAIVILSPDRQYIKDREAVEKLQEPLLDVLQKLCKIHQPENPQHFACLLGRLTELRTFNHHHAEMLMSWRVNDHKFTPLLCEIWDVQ

SMILES	EC50 [nM]
CC1(/C=C/c2c(-c3c(Cl)cccc3Cl)noc2C2CC2)CCN(c2ccc(C(=O)O)cn2)CC1 [Example 34]	403
COc1cc(-c2nc(N3CC4C(/C=C/c5c(-c6c(Cl)cncc6Cl)noc5C5CC5)C4C3)no2)cc(C(=O)O)n1 (stereo not drawn) [Example 164]	297
Cn1cc(C(=O)O)c2ccc(N3CC4C(/C=C/c5c(-c6c(Cl)cncc6Cl)noc5C5CC5)C4C3)cc21 (stereo not drawn) [Example 89]	31
O=C(O)c1cc(OC2CC2)c2cc(N3CC(/C=C/c4c(-c5ccccc5C(F)(F)F)noc4C4CC4)C3)ccc2n1 [Example 196]	53
O=C(O)c1ccc(N2CC3C(/C=C/c4c(-c5c(Cl)cncc5Cl)noc4C4CC4)C3C2)cc1 (stereo not drawn) [Example 96]	66
O=C(O)c1cc2ccc(N3CCC(/C=C/c4c(-c5ncccc5C(F)(F)F)noc4C4CC4)CC3)cc2cn1 [Example 115]	112
O=C(O)c1ccc(N2CC3C(/C=C/c4c(-c5c(Cl)cncc5Cl)noc4C4CC4)C3C2)nc1 (stereo not drawn) [Example 102]	1270
COc1ccc(COc2cc(C(=O)O)nc3ccc(N4CC5C(/C=C/c6c(-c7c(Cl)cncc7Cl)noc6C6CC6)C5C4)cc23)cc1 (stereo not drawn) [Example 129]	240
O=C(O)c1cc(O[C@H]2C[C@@H](F)C2)c2cc(N3CC4C(/C=C/c5c(-c6c(Cl)cncc6Cl)noc5C5CC5)C4C3)ccc2n1 (stereo partly drawn) [Example 203]	16
COc1cc(C(=O)O)cc(-c2ccc(N3CC(/C=C/c4c(-c5ccccc5C(F)(F)F)noc4C4CC4)C3)nc2)c1 [Example 222]	34
FC(F)(F)Oc1ccccc1-c1noc(C2CC2)c1/C=C/C1CCN(c2ccc(-c3nn[nH]n3)cc2)CC1 [Example 62]	20
COc1cc(C(=O)O)nc2c(F)cc(N3CC(/C=C/c4c(-c5ccccc5C(F)(F)F)noc4C4CC4)C3)cc12 [Example 215]	199
O=C(O)c1ccc(N2CCC(/C=C/c3c(C4CC4)nnn3-c3c(Cl)cccc3Cl)CC2)nc1 [Example 16]	109
COc1cc(C(=O)O)nc2ccc(N3CCC(/C=C/c4c(-c5c(Cl)cncc5Cl)noc4C4CC4)CC3)cc12 [Example 88]	5
Clc1cccc(Cl)c1-c1noc(C2CC2)c1/C=C/C1C2CN(c3ccc(-c4nn[nH]n4)cc3)CC12 (stereo not drawn) [Example 61]	41
O=C(O)c1cc(OC2CC2)c2cc(N3CC(/C=C/c4c(-c5ccccc5OC(F)(F)F)noc4C(F)(F)F)C3)ccc2n1 [Example 217]	1400
O=C(O)c1cc(OC2CCC2)c2cc(N3CC(/C=C/c4c(-c5cccnc5C(F)(F)F)noc4C4CC4)C3)ccc2n1 [Example 170]	50
Cn1cc(C(=O)O)c(=O)c2ccc(N3CC4C(/C=C/c5c(-c6ccccc6C(F)(F)F)noc5C5CC5)C4C3)cc21 (stereo not drawn) [Example 190]	376
O=C(O)c1cc(OCC(F)F)c2cc(N3CC4C(/C=C/c5c(-c6c(Cl)cncc6Cl)noc5C5CC5)C4C3)ccc2n1 (stereo not drawn) [Example 200]	21
O=C(O)c1cc(OC2CCC2)c2cc(N3CC(/C=C/c4c(-c5ccccc5C(F)(F)F)noc4C4CC4)C3)ccc2n1 [Example 150]	58
O=C(O)c1cnc2cc(N3CC4C(/C=C/c5c(-c6c(Cl)cncc6Cl)noc5C5CC5)C4C3)ccc2n1 (stereo not drawn) [Example 161]	192
O=C(O)c1cnc(N2CCC(/C=C/c3c(-c4c(Cl)cccc4Cl)noc3C3CC3)CC2)nc1 [Example 25]	83
O=C(O)c1cc(C(F)(F)F)c2cc(N3CC(/C=C/c4c(-c5c(Cl)cncc5Cl)noc4C4CC4)C3)ccc2n1 [Example 162]	150
O=C(O)c1cc(-c2nc(N3CC4C(/C=C/c5c(-c6c(Cl)cncc6Cl)noc5C5CC5)C4C3)no2)cc(C(F)(F)F)c1 (stereo not drawn) [Example 123]	206
COc1cc(C(=O)O)nc2ccc(N3CCC(/C=C/c4c(-c5ccccc5C(F)(F)F)noc4C4CC4)CC3)cc12 [Example 100]	4
O=C(O)c1cnc2cc(N3CC4C(/C=C/c5c(-c6ccccc6C(F)(F)F)noc5C5CC5)C4C3)ccc2n1 (stereo not drawn) [Example 140]	142

SMILES	EC50 [nM]
O=C(O)c1cc(OC2COC2)c2cc(N3CC(/C=C/c4c(-c5c(Cl)cncc5Cl)noc4C4CC4)C3)ccc2n1 [Example 160]	65
COc1cc(C(=O)O)cc(-c2ccc(N3CC(/C=C/c4c(-c5c(Cl)cncc5Cl)noc4C4CC4)C3)cc2)c1 [Example 219]	117
O=C(O)Cc1ccnc(N2CCC(/C=C/c3c(-c4c(Cl)cccc4Cl)noc3C3CC3)CC2)c1 [Example 40]	947
O=C(O)c1cc(OC2CCC2)c2cc(N3CC[C@@H](/C=C/c4c(-c5ccccc5C(F)(F)F)noc4C4CC4)C3)ccc2n1 [Example 147]	139
Cc1cc(C(=O)O)nc2sc(N3CCC(/C=C/c4c(-c5c(Cl)cncc5Cl)noc4C4CC4)CC3)nc12 [Example 112]	155
O=C(O)c1nccc2cc(N3CCC(/C=C/c4c(-c5c(Cl)cncc5Cl)noc4C4CC4)CC3)ccc12 [Example 104]	219
COc1nc(C(=O)O)cc2ccc(N3CC4C(/C=C/c5c(-c6ccccc6C(F)(F)F)noc5C5CC5)C4C3)cc12 (stereo not drawn) [Example 135]	416
CC(C)Oc1cc(C(=O)O)nc2ccc(N3CCC(/C=C/c4c(-c5ccccc5OC(F)(F)F)noc4C4CC4)CC3)cc12 [Example 108]	22
CCOc1cc(C(=O)O)nc2ccc(N3CC4C(/C=C/c5c(-c6cccnc6C(F)(F)F)noc5C5CC5)C4C3)cc12 (stereo not drawn) [Example 156]	43
O=C(O)c1cc2ccc(N3CC4C(/C=C/c5c(-c6ccccc6C(F)(F)F)noc5C5CC5)C4C3)cc2cn1 (stereo not drawn) [Example 76]	413
O=C(O)c1cccc(-c2ccc(N3CC(/C=C/c4c(-c5ccccc5C(F)(F)F)noc4C4CC4)C3)cc2)c1 [Example 207]	64
O=C(O)c1cc(O[C@H]2CCOC2)c2cc(N3CC(/C=C/c4c(-c5cccnc5C(F)(F)F)noc4C4CC4)C3)ccc2n1 [Example 189]	650
O=C(O)c1ccc(N2CCC(/C=C/c3c(-c4c(Cl)cccc4Cl)noc3C3CC3)CC2)cn1 [Example 30]	78
O=C(O)c1cc(OC2CCC2)c2cc(N3CC[C@H](/C=C/c4c(-c5ccccc5C(F)(F)F)noc4C4CC4)C3)ccc2n1 [Example 148]	2
O=C(O)c1cnc(N2CCC(/C=C/c3c(-c4c(Cl)cccc4Cl)noc3C3CC3)CC2)cn1 [Example 24]	127
COCc1cc(C(=O)O)nc2ccc(N3CC(/C=C/c4c(-c5ccccc5C(F)(F)F)noc4C4CC4)C3)cc12 [Example 186]	228
Cn1cc(C(=O)O)c2cnc(N3CCC(/C=C/c4c(-c5c(Cl)cccc5Cl)noc4C4CC4)CC3)nc21 [Example 19]	194
O=C(O)c1cnc2cc(N3CC(/C=C/c4c(-c5c(Cl)cncc5Cl)noc4C4CC4)C3)ccc2n1 [Example 167]	308
CC(C)Oc1cc(C(=O)O)nc2ccc(N3CCC(/C=C/c4c(-c5ccncc5C(F)(F)F)noc4C4CC4)CC3)cc12 [Example 110]	5
O=C(O)c1nsc2cc(N3CC4C(/C=C/c5c(-c6c(Cl)cncc6Cl)noc5C5CC5)C4C3)ccc12 (stereo not drawn) [Example 95]	108
O=C(O)c1c2ccc(N3CC4C(/C=C/c5c(-c6c(Cl)cccc6Cl)noc5C5CC5)C4C3)cc2nn1CC1CC1 (stereo not drawn) [Example 212]	21
COc1cc(C(=O)O)nc2sc(N3CC4C(/C=C/c5c(-c6c(Cl)cncc6Cl)noc5C5CC5)C4C3)nc12 (stereo not drawn) [Example 124]	284
O=C(O)c1nccc2cc(N3CCC(/C=C/c4c(-c5ccccc5OC(F)(F)F)noc4C4CC4)CC3)ccc12 [Example 106]	330
O=C(O)c1cc(O[C@H]2C[C@@H](F)C2)c2cc(N3CC(/C=C/c4c(-c5ccccc5C(F)(F)F)noc4C4CC4)C3)ccc2n1 [Example 187]	348
COc1cc(C(=O)O)nc2ccc(N3CC(/C=C/c4c(-c5ccccc5C(F)(F)F)noc4C4CC4)C3)nc12 [Example 173]	375

Same assay, conditions: HLE GAL-FXR EC50, Gal4-hFXR fusion reporter, HEK293 cells

SMILES	pEC50
O=C(O)c1ccc(N2CCC(/C=C\c3c(-c4c(Cl)cccc4Cl)noc3C3CC3)CC2)nc1 [Example 3, (Z)-6-(4-(2-(5-cyclopropyl-3-(2,6-dichlorophenyl)isoxazol-4-yl)vinyl)piperidin-1-yl)nicotinic acid]	6.97
C/C(=C\c1c(-c2c(Cl)cccc2Cl)noc1C1CC1)C1CCN(c2ccc3nc(C(=O)O)ccc3c2)CC1 [Example 5, (E)-6-(4-(1-(5-Cyclopropyl-3-(2,6-dichlorophenyl)isoxazol-4-yl)prop-1-en-2-yl)piperidin-1-yl)quinoline-2-carboxylic acid]	5.90
Cn1cc(C(=O)O)c2ccc(N3CCC(/C=C/c4c(-c5c(Cl)cccc5Cl)noc4C4CC4)CC3)cc21 [Example 2, (E)-6-(4-(2-(5-Cyclopropyl-3-(2,6-dichlorophenyl)isoxazol-4-yl)vinyl)piperidin-1-yl)-1-methyl-1H-indole-3-carboxylic acid]	8.30
COc1cc(C(=O)O)cc(-c2nc(N3CC4C(/C=C/c5c(-c6c(Cl)cncc6Cl)noc5C5CC5)C4C3)ns2)c1 (stereo not drawn) [Example 210, (E)-3-(3-(6-(2-(5-Cyclopropyl-3-(3,5-dichloropyridin-4-yl)isoxazol-4-yl)vinyl)-3-azabicyclo[3.1.0]hexan-3-yl)-1,2,4-thiadiazol-5-yl)-5-methoxybenzoic acid]	6.17
O=C(O)c1ccc2cc(N3CC4C(/C=C/c5c(-c6c(Cl)cccc6Cl)noc5C5CC5)C4C3)ccc2n1 (stereo not drawn) [Example 9, (E)-6-(6-(2-(5-cyclopropyl-3-(2,6-dichlorophenyl)isoxazol-4-yl)vinyl)-3-azabicyclo[3.1.0]hexan-3-yl)quinoline-2-carboxylic acid]	7.41
Clc1cccc(Cl)c1-c1noc(C2CC2)c1/C=C/C1CCN(c2ccc(-c3nnn[nH]3)cc2)CC1 [Example 56, (E)-4-(2-(1-(4-(1H-Tetrazol-5-yl)phenyl)piperidin-4-yl)vinyl)-5-cyclopropyl-3-(2,6-dichlorophenyl)isoxazole]	8.52
